Here are results for 15 molecules from US11339193B2, “CDP protein secretion inhibitors” (KEZAR LIFE SCIENCES, priority 2018, dated 2022).

As usually defined, the EC50 is the concentration that produces a half-maximal response. In general, IC50 refers to the concentration that inhibits the measured activity by half.

What all share (type): cell-based
In assay [1] the test system is NCI-H929 multiple myeloma cell line. Briefly: H929 assay (cell viability, Celltiter-Glo). Conditions: Homo sapiens, NCI-H929; 48 hours, cell viability; read-out: H929 EC50. As for the experimental part:
The human multiple myeloma cell line NCI-H929 was cultured in Advanced RPMI 1640 media (Gibco@) supplemented with 6% fetal bovine serum, 2 mM Glutamine, and 1× Penicillin/Streptomycin. On the day of assay, cells were resuspended in RPMI 1640 media supplemented with 10% fetal bovine serum, 2 mM Glutamine, and 1× Penicillin/Streptmycin and plated in 384-well tissue culture plates and treated with compound dilutions in DMSO/media. Plates were incubated at 37° C., 5% CO2 for 48 hours. After 48 hours, Celltiter-Glo@ (Promega) was added to each well and luciferase signal was quantified using Tecan Infinite M1000 Pro for cell viability determination.
For orientation: ATP-based viability assays read luminescence as a measure of living cells.

In assay [2] the test system is Prl-ss+10aa/Gaussia Luciferase. Briefly: Prl-ss-Gluc assay (constitutively active or 24 hr Dox inducible). Conditions: Flp-In 293 T-REx cells, 24 hours; read-out: Prl IC50. The text has this: Constitutively Active Prl-ss-Gluc Assay
Flp-In 293 T-REx™ cells were transfected with pcDNA™5/FRT plasmid inserted with cDNA encoding Gaussia Luciferase fused to the 3′ end of cDNA encoding Prl signal sequence plus 10 amino acids (N-[…]-C) (SEQ ID NO:4). Transfected cells were selected for resistance to the selectable markers Hygromycin and Blasticidin to create a stable cell line that constitutively expressed the Prlss+10aa/Gaussia Luciferase fusion protein. The day before assay, cells were trypsinized and plated in 384-well tissue culture plates. The next day, culture media was removed from the wells and replaced with fresh media. Compound dilutions in DMSO/media were added to the wells and incubated at 37° C., 5% CO2.
24 hr Dox Inducible Prl-ss-Gluc Assay
(§1) Flp-In 293 T-REx™ cells were transfected with pcDNA™5/FRT/TO plasmid inserted with cDNA encoding Gaussia Luciferase fused to the 3′ end of cDNA encoding Prl signal sequence plus 10 amino acids (N-[…]-C) (SEQ ID NO:5). Transfected cells were selected for resistance to the selectable markers Hygromycin and Blasticidin to create a stable cell line that contained the Prl-ss+10aa/Gaussia Luciferase cDNA insert whose expression was regulated under the T-REx™ system. The day before assay, cells were trypsinized and plated in 384-well tissue culture plates. The next day, compound dilutions in DMSO/media containing doxycycline were added to the wells and incubated at 37° C., 5% CO2.

The test system of assay [3] is PD1-ss+10aa/Gaussia Luciferase. Nature of the assay: Dox induced PD1-ss-Gluc assay. Conditions: Flp-In 293 T-REx cells, doxycycline, 24 hours; read-out: PD1ss Gluc IC50.
From the text: Dox Induced PD1-ss-Gluc Assay
as §1, with “PD1” for “Prl”, “NO:3).” for “NO:5).”, “PD1-ss+10aa/Gaussia” for “Prl-ss+10aa/Gaussia”

Assay [4] has as its system TNFα-FL/Gaussia Luciferase. Briefly: Dox induced TNFα-FL-Gluc assay. Conditions: Flp-In 293 T-REx cells, doxycycline, 24 hours; read-out: TNFa FL Gluc IC50. The text has this: Dox Induced TNFα-FL-Gluc Assay
Flp-In 293 T-REx™ cells were transfected with pcDNA™5/FRT/TO plasmid inserted with cDNA encoding Gaussia Luciferase fused to the 3′ end of cDNA encoding full length TNFα (amino acids 1-233). Transfected cells were selected for resistance to the selectable markers Hygromycin and Blasticidin to create a stable cell line that contained the TNFα-FL/Gaussia Luciferase cDNA insert whose expression was regulated under the T-REx™ system. The day before assay, cells were trypsinized and plated in 384-well tissue culture plates. The next day, compound dilutions in DMSO/media containing doxycycline were added to the wells and incubated at 37° C., 5% CO2.

Numbered stars: 1 amine (or outer) side, 2 acyl side, 3 side chain; on linkers, the order of the positions; unused ones are H or OH. Square brackets hold non-standard residues; d marks the D form. Peptide text beside a SMILES is read from it. Ala(1-cyclohexenyl) = N[C@@H](CC1=CCCCC1)C(=O)O; Butanoyl(2R-oxy,4-CN) = N#CCC[C@@H](O)C(=O)O; X22 = CCCC[C@@H](C)C[C@H](N[*:1])C(=O)[*:2]; Abu(4,4,4-F3) = N[C@@H](CC(F)(F)F)C(=O)O; NMeAla(cPent) = CN[C@@H](CC1CCCC1)C(=O)O; NMeCha = CN[C@@H](CC1CCCCC1)C(=O)O; NMeF = CN[C@@H](Cc1ccccc1)C(=O)O; aIle = CC[C@@H](C)[C@H](N)C(=O)O; Cha = N[C@@H](CC1CCCCC1)C(=O)O; NMeL = CN[C@@H](CC(C)C)C(=O)O; NMeA = CN[C@@H](C)C(=O)O; Nle = CCCC[C@H](N)C(=O)O; Nva = CCC[C@H](N)C(=O)O; Abu = CC[C@H](N)C(=O)O

Regarding `CCCC[C@@H](C)C[C@@H]1NC(=O)[C@H](CC2CCCCC2)N(C)C(=O)[C@H](CCC)NC(=O)[C@H](CC(C)C)N(C)C(=O)[C@H](C[C@H](C)CCCC)NC(=O)[C@@H](CCC#N)OC(=O)[C@H](C)N(C)C1=O` [C-44] (cyclo([NMeA][Butanoyl(2R-oxy,4-CN)][X22][NMeL][Nva][NMeCha][X22])), the EC50 in assay [1] came to 0.376 µM. Further, the IC50 stood at 0.74 µM in assay [2], 0.037 µM in assay [3] and 0.109 µM in assay [4].
On the same counts, the results for `CCCC[C@@H](C)C[C@@H]1NC(=O)[C@H](CC2CCCCC2)N(C)C(=O)[C@H](CC(C)C)NC(=O)[C@H](CC(C)C)N(C)C(=O)[C@H](CC2CCCCC2)NC(=O)[C@@H](CCC#N)OC(=O)[C@H](C)N(C)C1=O` [C-45] (cyclo([Cha][NMeL]L[NMeCha][X22][NMeA][Butanoyl(2R-oxy,4-CN)])) are 4.91 µM, 2.5 µM, 0.248 µM and 0.911 µM.
Turning to `CCCC[C@@H](C)C[C@@H]1NC(=O)[C@H](CC2CCCCC2)N(C)C(=O)[C@H](CC(C)C)NC(=O)[C@H](CC(C)C)N(C)C(=O)[C@H](CCCC)NC(=O)[C@@H](CCC#N)OC(=O)[C@H](C)N(C)C1=O` [C-53] (cyclo(L[NMeCha][X22][NMeA][Butanoyl(2R-oxy,4-CN)][Nle][NMeL])), the EC50 in assay [1] came to 5.86 µM. For the same molecule, the IC50 in assay [3] turned out to be 0.495 µM; in assay [4] it was 1.56 µM.
On the same counts, the results for `CCCC[C@@H](C)C[C@@H]1NC(=O)[C@H](Cc2ccccc2)N(C)C(=O)[C@H](CC(C)C)NC(=O)[C@H](CC(C)C)N(C)C(=O)[C@H](CC(C)C)NC(=O)[C@@H](C)OC(=O)[C@H](C)N(C)C1=O` [C-08] (HELM PEPTIDE1{L.[meF].[CCCC[C@@H](C)C[C@H](N[*:1])C(=O)[*:2]].[meA].[C[C@@H](O[*:1])C(=O)[*:2]].L.[meL]}$PEPTIDE1,PEPTIDE1,1:R1-7:R2$$$V2.0) are 4.46 µM, 0.36 µM and 0.526 µM.
On the same counts, the results for `CCCC[C@@H](C)C[C@@H]1NC(=O)[C@H](CC2CCCCC2)N(C)C(=O)[C@H](CC(C)C)NC(=O)[C@H](CC(C)C)N(C)C(=O)[C@H]([C@H](C)CC)NC(=O)[C@@H](CCC#N)OC(=O)[C@H](C)N(C)C1=O` [C-62] (cyclo(L[NMeCha][X22][NMeA][Butanoyl(2R-oxy,4-CN)][aIle][NMeL])) are 4.22 µM, 0.277 µM and 1.66 µM.
On the same counts, the results for `CCCC[C@@H](C)C[C@@H]1NC(=O)[C@H](CC2CCCC2)N(C)C(=O)[C@H](CC(C)C)NC(=O)[C@H](CC(C)C)N(C)C(=O)[C@H](C[C@H](C)CCCC)NC(=O)[C@@H](CCC#N)OC(=O)[C@H](C)N(C)C1=O` [C-22] (cyclo(L[NMeAla(cPent)][X22][NMeA][Butanoyl(2R-oxy,4-CN)][X22][NMeL])) are 0.95 µM, 0.115 µM and 0.236 µM.
On to `CCCC[C@@H](C)C[C@@H]1NC(=O)[C@H](CC2CCCCC2)N(C)C(=O)[C@H](CC(C)C)NC(=O)[C@H](CC(C)C)N(C)C(=O)[C@H](CC2=CCCCC2)NC(=O)[C@@H](CCC#N)OC(=O)[C@H](C)N(C)C1=O` [C-56] (cyclo(L[NMeCha][X22][NMeA][Butanoyl(2R-oxy,4-CN)][Ala(1-cyclohexenyl)][NMeL])), for which, in assay [1], the EC50 came out at 1.65 µM. The IC50 in assay [3] turned out to be 0.094 µM; in assay [4], 0.238 µM.
As for `CCCC[C@@H](C)C[C@@H]1NC(=O)[C@H](CC2CCCCC2)N(C)C(=O)[C@H](CC(C)C)NC(=O)[C@H](CC(C)C)N(C)C(=O)[C@H](CCC)NC(=O)[C@@H](CCC#N)OC(=O)[C@H](C)N(C)C1=O` [C-19] (cyclo(L[NMeCha][X22][NMeA][Butanoyl(2R-oxy,4-CN)][Nva][NMeL])), in assay [1], the EC50 amounted to 5.15 µM. Also, the IC50 in assay [3] stood at 0.374 µM; in assay [4] it was 1.39 µM.
In the same order, the values of `CCCC[C@@H](C)C[C@@H]1NC(=O)[C@H](CC2CCCCC2)N(C)C(=O)[C@H](CC(C)C)NC(=O)[C@H](CC(C)C)N(C)C(=O)[C@H](C(C)C)NC(=O)[C@@H](CCC#N)OC(=O)[C@H](C)N(C)C1=O` [C-20] (cyclo(L[NMeCha][X22][NMeA][Butanoyl(2R-oxy,4-CN)]V[NMeL])) are 5.3 µM, 0.432 µM and 1.68 µM.
As to `CCCC[C@@H](C)C[C@@H]1NC(=O)[C@H](CC2CCCCC2)N(C)C(=O)[C@H](CC(C)C)NC(=O)[C@H](CC(C)C)N(C)C(=O)[C@H](C[C@H](C)CCCC)NC(=O)[C@@H](CCC#N)OC(=O)[C@H](C)N(C)C1=O` [C-18] (cyclo(L[NMeCha][X22][NMeA][Butanoyl(2R-oxy,4-CN)][X22][NMeL])), in assay [1], the EC50 came to 0.429 µM. Further, the IC50 in assay [3] amounted to 0.037 µM; in assay [4] it was 0.084 µM.
On the same counts, the results for `CCCC[C@@H](C)C[C@@H]1NC(=O)[C@@H](CCC#N)OC(=O)[C@H](C)N(C)C(=O)[C@H](CC(F)(F)F)NC(=O)[C@H](Cc2ccccc2)N(C)C(=O)[C@H](CC(C)C)NC(=O)[C@H](CC(C)C)N(C)C1=O` [C-26] (cyclo(L[NMeF][Abu(4,4,4-F3)][NMeA][Butanoyl(2R-oxy,4-CN)][X22][NMeL])) are 1.01 µM, 0.059 µM and 0.092 µM.
In the case of `CCCC[C@@H](C)C[C@@H]1NC(=O)[C@H](CC2CCCCC2)N(C)C(=O)[C@H](CC)NC(=O)[C@H](CC(C)C)N(C)C(=O)[C@H](C[C@H](C)CCCC)NC(=O)[C@@H](CCC#N)OC(=O)[C@H](C)N(C)C1=O` [C-43] (cyclo([Abu][NMeCha][X22][NMeA][Butanoyl(2R-oxy,4-CN)][X22][NMeL])), in assay [1], the EC50 came to 0.593 µM. For the same molecule, the figures for the IC50 in assay [2], in assay [3] and in assay [4] were 1.53 µM, 0.067 µM and 0.211 µM, respectively.
Turning to `CC(C)C[C@@H]1NC(=O)[C@H](Cc2ccc3ccccc3c2)N(C)C(=O)[C@H](CC(C)C)NC(=O)[C@H](CC(C)C)N(C)C(=O)[C@H](CC(C)C)NC(=O)[C@@H](CCC#N)OC(=O)[C@H](C)N(C)C1=O` [C-66] (HELM PEPTIDE1{L.[CN([C@@H](Cc1ccc2ccccc2c1)C(=O)[*:2])[*:1]].L.[meA].[N#CCC[C@@H](O[*:1])C(=O)[*:2]].L.[meL]}$PEPTIDE1,PEPTIDE1,1:R1-7:R2$$$V2.0), the EC50 in assay [1] amounted to 8.8 µM. The results for the IC50 in assay [3] and in assay [4] were 1.04 µM and 2.8 µM, respectively.
On the same counts, the results for `CCCC[C@@H](C)C[C@@H]1NC(=O)[C@H](CC2CCCCC2)N(C)C(=O)[C@H](CC(C)C)NC(=O)[C@H](CC(C)C)N(C)C(=O)[C@H](CC(C)C)NC(=O)[C@@H](CCC#N)OC(=O)[C@H](C)N(C)C1=O` [C-21] (cyclo(L[NMeCha][X22][NMeA][Butanoyl(2R-oxy,4-CN)]L[NMeL])) are 3.4 µM, 0.212 µM and 0.716 µM.
In the same order, the values of `CCCC[C@@H](C)C[C@@H]1NC(=O)[C@H](Cc2ccccc2)N(C)C(=O)[C@H](CC(C)C)NC(=O)[C@H](CC(C)C)N(C)C(=O)[C@H](CC(F)(F)F)NC(=O)[C@@H](CCC#N)OC(=O)[C@H](C)N(C)C1=O` [C-09] (cyclo(L[NMeF][X22][NMeA][Butanoyl(2R-oxy,4-CN)][Abu(4,4,4-F3)][NMeL])) are 1.82 µM, 0.114 µM and 0.158 µM.
